The values that follow come from article PMC3159025 (2011).

The target of this test is T1, system xc− (obligate cystine-glutamate transporter) (Homo sapiens, UniProt Q9UPY5).
T1 sequence (Q9UPY5 1-501): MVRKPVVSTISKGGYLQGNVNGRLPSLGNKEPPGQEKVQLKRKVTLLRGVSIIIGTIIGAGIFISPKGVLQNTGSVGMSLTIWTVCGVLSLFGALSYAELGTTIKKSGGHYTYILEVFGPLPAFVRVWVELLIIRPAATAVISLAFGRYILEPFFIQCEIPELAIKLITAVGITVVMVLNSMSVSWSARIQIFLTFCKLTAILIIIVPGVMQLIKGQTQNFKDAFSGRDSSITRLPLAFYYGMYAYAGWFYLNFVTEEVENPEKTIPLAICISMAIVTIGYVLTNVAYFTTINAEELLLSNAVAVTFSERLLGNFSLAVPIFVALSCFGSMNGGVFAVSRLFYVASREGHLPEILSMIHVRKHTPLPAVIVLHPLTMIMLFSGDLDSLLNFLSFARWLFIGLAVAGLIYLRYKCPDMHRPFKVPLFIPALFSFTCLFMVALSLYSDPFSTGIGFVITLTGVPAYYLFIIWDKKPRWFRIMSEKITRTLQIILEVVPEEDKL
T1 sequence (P08195 2-529 partner): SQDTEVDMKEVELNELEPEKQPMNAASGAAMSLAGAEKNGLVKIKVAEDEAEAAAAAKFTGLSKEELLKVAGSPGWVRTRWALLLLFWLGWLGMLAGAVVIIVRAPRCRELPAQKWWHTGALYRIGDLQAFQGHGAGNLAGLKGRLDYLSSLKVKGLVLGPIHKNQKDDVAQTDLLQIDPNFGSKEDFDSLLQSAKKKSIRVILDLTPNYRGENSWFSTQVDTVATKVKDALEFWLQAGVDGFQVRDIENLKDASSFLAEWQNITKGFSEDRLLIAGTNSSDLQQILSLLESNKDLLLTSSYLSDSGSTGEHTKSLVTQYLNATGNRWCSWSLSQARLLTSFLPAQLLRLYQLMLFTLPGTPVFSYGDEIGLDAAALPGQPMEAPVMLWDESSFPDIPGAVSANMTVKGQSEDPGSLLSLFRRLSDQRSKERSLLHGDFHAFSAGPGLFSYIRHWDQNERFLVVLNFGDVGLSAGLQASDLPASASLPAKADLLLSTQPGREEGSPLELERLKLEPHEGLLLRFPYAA
Nature of the test: inhibition of 3H-L-glutamate uptake. The test is classed as cell-based. Conditions: SNB-19, read-out: Uptake ^a Sxc^-.

Molecules are shown by their SMILES.

Consider `N[C@@H](CSSC[C@H](N)C(=O)O)C(=O)O` [L-Cystine], for which the activity at 500 µM was found to be 22 ± 3%.
